Test results: ChEMBL document CHEMBL1201862, “PubChem BioAssay data set” (2004)
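The compound was tested at five concentrations on cells cultured in 96-well plates, with a 48-hour exposure period. GI50 marks 50% less growth.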 Active and inactive are the calls of the source. No stated cut-off is given here; in the data, active = GI50 up to about 1.1 µM and inactive = higher.

Assays:
Assay in all cases: NCI-60 cell line screen, 48 h
A549 = system: A549
CAKI-1 = system: CAKI-1
CCRF-CEM = system: CCRF-CEM
COLO 205 = system: COLO 205
EKVX = system: EKVX
HCC 2998 = system: HCC 2998
HCT-116 = system: HCT-116
HCT-15 = system: HCT-15
HT-29 = system: HT-29
IGROV-1 = system: IGROV-1
K562 = system: K562
OVCAR-3 = system: OVCAR-3
OVCAR-5 = system: OVCAR-5
OVCAR-8 = system: OVCAR-8
RPMI-8226 = system: RPMI-8226
SF-268 = system: SF-268
SK-MEL-5 = system: SK-MEL-5
SK-OV-3 = system: SK-OV-3
SNB-19 = system: SNB-19
UACC-257 = system: UACC-257

Row | Structure (SMILES) | GI50 (A549) | GI50 (CAKI-1) | GI50 (CCRF-CEM) | GI50 (COLO 205) | GI50 (EKVX) | GI50 (HCC 2998) | GI50 (HCT-116) | GI50 (HCT-15) [µM] | GI50 (HT-29) | GI50 (IGROV-1) | GI50 (K562) | GI50 (OVCAR-3) | GI50 (OVCAR-5) | GI50 (OVCAR-8) | GI50 (RPMI-8226) | GI50 (SF-268) | GI50 (SK-MEL-5) | GI50 (SK-OV-3) | GI50 (SNB-19) | GI50 (UACC-257)
1 | Oc1ccccc1-c1nn2c(CCCCCCCCc3nnc4sc(-c5ccccc5O)nn34)nnc2s1 | 6 µM (inactive) | 5.11 µM (inactive) | 5.42 µM (inactive) | 37.2 µM (inactive) | 22.4 µM (inactive) | 27.2 µM (inactive) | 10.5 µM (inactive) | 7.6 | 11.1 µM (inactive) | 4.66 µM (inactive) | 7.6 µM (inactive) | 14.4 µM (inactive) | 6.27 µM (inactive) | 18.7 µM (inactive) | 11.1 µM (inactive) | 19 µM (inactive) | 18.3 µM (inactive) | 15.2 µM (inactive) | 23.7 µM (inactive) | 20.3 µM (inactive)
2 | O=C1Cc2c(-c3ccccc3)cc(-c3cccc(Cl)c3)nc2-c2ccccc2N1 | 1.82 µM (inactive) | 1.82 µM (inactive) | 12.1 µM (inactive) | 6.62 µM (inactive) | 2.29 µM (inactive) | 2.09 µM (inactive) | 1.6 µM (inactive) | 3.42 | 1.73 µM (inactive) | 1.2 µM (inactive) | 3.33 µM (inactive) | 2.1 µM (inactive) | 6.19 µM (inactive) | 1.61 µM (inactive) | 15.7 µM (inactive) | 2.73 µM (inactive) | 9.91 µM (inactive) | 1.86 µM (inactive) | 1.64 µM (inactive) | 6.32 µM (inactive)
3 | COc1cc(C2c3cc4c(cc3[C@@H](Nc3cccc(C(C)=O)c3)C3COC(=O)[C@H]23)OCO4)cc(OC)c1O (stereo not given in full) | < 0.0184 µM (active) | 0.108 µM (active) | 0.0349 µM (active) | 1.86 µM (inactive) | 2.21 µM (inactive) | 1.34 µM (inactive) | 0.664 µM (active) | 0.307 | 1.1 µM (active) | 3.03 µM (inactive) | 0.536 µM (active) | 1.91 µM (inactive) | 2.1 µM (inactive) | 0.968 µM (active) | 0.197 µM (active) | 0.577 µM (active) | 0.411 µM (active) | 0.71 µM (active) | 0.236 µM (active) | 1.05 µM (active)
4 | COC(=O)c1ccc(NCC2=C(Br)C(=O)C=CC2=O)cc1Cl | > 100 µM (inactive) | 26.9 µM (inactive) | > 100 µM (inactive) | 17.8 µM (inactive) | 14.1 µM (inactive) | 42.6 µM (inactive) | 18 µM (inactive) | 15.8 | 17.7 µM (inactive) | 15.5 µM (inactive) | 3.54 µM (inactive) | 13.9 µM (inactive) | 21.8 µM (inactive) | 19.3 µM (inactive) | 40.3 µM (inactive) | 16.8 µM (inactive) | 20.1 µM (inactive) | > 100 µM (inactive) | > 100 µM (inactive) | 23.8 µM (inactive)
5 | C/C([O-])=C(/c1nc(-c2ccc([N+](=O)[O-])o2)no1)[n+]1cc(C)ccc1C | 15 µM (inactive) | 14.3 µM (inactive) | 1.53 µM (inactive) | 6.08 µM (inactive) | 58.6 µM (inactive) | 13 µM (inactive) | 6.25 µM (inactive) | 7.03 | 9.79 µM (inactive) | 29 µM (inactive) | 0.692 µM (active) | 19.6 µM (inactive) | 21.8 µM (inactive) | 19.8 µM (inactive) | 15.3 µM (inactive) | 20.3 µM (inactive) | 10.6 µM (inactive) | 35.6 µM (inactive) | 26.7 µM (inactive) | 11.9 µM (inactive)
6 | O=C1c2ccccc2-c2nnc(-c3ccc([N+](=O)[O-])cc3)cc21 | > 10 µM (inactive) | > 10 µM (inactive) | > 10 µM (inactive) | > 10 µM (inactive) | > 10 µM (inactive) | > 10 µM (inactive) | > 10 µM (inactive) | > 10 | > 10 µM (inactive) | > 10 µM (inactive) | > 10 µM (inactive) | > 10 µM (inactive) | > 10 µM (inactive) | > 10 µM (inactive) | > 10 µM (inactive) | > 10 µM (inactive) | > 10 µM (inactive) | > 10 µM (inactive) | > 10 µM (inactive) | > 10 µM (inactive)
7 | O=C1C(Cl)=C(N2CCC[C@H]2CO)C(=O)c2c(O)ccc(O)c21 | 8.2 µM (inactive) | 1.66 µM (inactive) | 0.22 µM (active) | 1.77 µM (inactive) | 9.16 µM (inactive) | 4.55 µM (inactive) | 1.64 µM (inactive) | 1.95 | 4.18 µM (inactive) | 4.95 µM (inactive) | 0.425 µM (active) | 2.56 µM (inactive) | > 10 µM (inactive) | 2.88 µM (inactive) | 0.379 µM (active) | 3.74 µM (inactive) | 1.73 µM (inactive) | > 10 µM (inactive) | > 10 µM (inactive) | 1.35 µM (inactive)
